In the assay the test system is K562 human chronic myeloid leukaemia cells. Briefly: In vitro cytotoxicity, MTT assay in K562 cells. It is filed as cell-based. On the procedure: K562 human chronic myeloid leukaemia cells were maintained in RPM1 1640 medium supplemented with 10% fetal calf serum and 2 mM glutamine at 37° C. in a humidified atmosphere containing 5% CO2 and were incubated with a specified dose of drug for 1 hour or 96 hours at 37° C. in the dark. The incubation was terminated by centrifugation (5 min, 300 g) and the cells were washed once with drug-free medium. Following the appropriate drug treatment, the cells were transferred to 96-well microtiter plates (10^4 cells per well, 8 wells per sample). Plates were then kept in the dark at 37° C. in a humidified atmosphere containing 5% CO2. The assay is based on the ability of viable cells to reduce a yellow soluble tetrazolium salt, 3-(4,5-dimethylthiazol-2-yl)-2,5-diphenyl-2H-tetrazolium bromide (MTT, Aldrich-Sigma), to an insoluble purple formazan precipitate. Following incubation of the plates for 4 days (to allow control cells to increase in number by approximately 10 fold), 20 μL of MTT solution (5 mg/mL in phosphate-buffered saline) was added to each well and the plates further incubated for 5 h. The plates were then centrifuged for 5 min at 300 g and the bulk of the medium pipetted from the cell pellet leaving 10-20 μL per well. DMSO (200 μL) was added to each well and the samples agitated to ensure complete mixing. The optical density was then read at a wavelength of 550 nm on a Titertek Multiscan ELISA plate reader, and a dose-response curve was constructed. For each curve, an IC50 value was read as the dose required to reduce the final optical density to 50% of the control value.

This note sets out measurements from patent US7741319B2 (Spirogen Limited, priority 2004, dated 2010).

Each structure is given as a SMILES string. A value given as a limit tells only on which side of the number the result lay.

In the case of `COc1ccc(C2=CN3C(=O)c4cc(OC)c(OCCCOc5cc6c(cc5OC)C(=O)N5C=C(c7ccc(OC)cc7)C[C@H]5C=N6)cc4N=C[C@@H]3C2)cc1` [ZC-207, 1,1′-[[(Propane-1,3-diyl)dioxy]bis[(11aS)-7-methoxy-2-(p-methoxybenzene)-1,11a-dihydro-5H-pyrrolo[2,1-c][1,4]benzodiazepine-5-one]]], the IC50 (commonly the point on the concentration scale where inhibition reaches its midpoint) (K562, 1 h, 1 hour incubation) amounted to 0.0053 ± 0.0049 µM. `COc1cc2c(cc1OCCCOc1cc3c(cc1OC)C(=O)N1C=C(C#Cc4ccccc4)C[C@H]1C=N3)N=C[C@@H]1CC(C#Cc3ccccc3)=CN1C2=O` [ZC-209] displayed an IC50 (K562, 1 h, 1 hour incubation) below 0.01 µM.

`C/C=C/C1=CN2C(=O)c3cc(OC)c(OC)cc3N=C[C@@H]2C1` [Compound 30q, (11aS)-7,8-Dimethoxy-2-(1-propenyl)-1,11a-dihydro-5H-pyrrolo[2,1-c][1,4]benzodiazepin-5-one]: the IC50 by setting is: (K562, 96 h, 96 hour incubation period, threshold less than 10 nM) below 0.01 µM; (K562, 96 h, 96 hour incubation period, threshold less than 1 μM) below 1 µM. In the case of `C/C=C/C1=CN2C(=O)c3cc(OC)c(OCCCOc4cc5c(cc4OC)C(=O)N4C=C(/C=C/C)C[C@H]4C=N5)cc3N=C[C@@H]2C1` [ZC-211], under “1 hour incubation”, the IC50 was below 0.01 µM.

In the case of `COc1cc2c(cc1OCCCOc1cc3c(cc1OC)C(=O)N1C=C(/C=C/C(=O)N(C)C)C[C@H]1C=N3)N=C[C@@H]1CC(/C=C/C(=O)N(C)C)=CN1C2=O`, the IC50 (K562, 1 h, 1 hour incubation) was 3.8 ± 0.44 µM.
